Holding throughout (experiment): greenhouse post-emergence herbicidal test
Format in all cases: in vivo
Common to all, as to conditions: 0.32 kg/ha, scale from 0 to 100

Test [1] relates to Echinocloa crus-galli (ECHCG). The text has this:
(§1) The culture containers used were plastic flowerpots containing loamy sand with approximately 3.0% of humus as the substrate. The seeds of the test plants were sown separately for each species.
(§2) For the pre-emergence treatment, the active ingredients, which had been suspended or emulsified in water, were applied directly after sowing by means of finely distributing nozzles. The containers were irrigated gently to promote germination and growth and subsequently covered with transparent plastic hoods until the test plants had rooted. This cover caused uniform germination of the test plants, unless this had been impaired by the active ingredients. For the post-emergence treatment, the test plants were first grown to a height of 3 to 15 cm, depending on the plant habit, and only then treated with the active ingredients which had been suspended or emulsified in water. For this purpose, the test plants were either shown directly and grown in the same containers, or they were first grown separately as seedlings and transplanted into the test containers a few days prior to treatment.
(§3) Depending on the species, the test plants were kept at 10-25° C. or 20-35° C., respectively. The test period extended over 2 to 4 weeks. During this time, the test plants were tended, and their response to the individual treatments was evaluated.
(§4) Evaluation was carried out using a scale from 0 to 100. 100 means no emergence of the test plants, or complete destruction of at least the aerial moieties, and 0 means no damage, or normal course of growth. A good herbicidal activity is given at values of 70 to <90 and a very good herbicidal activity is given at values of 90 to 100.
(§5) The test plants used in the greenhouse experiments were of the following species: […]

Test [2] has as its system Fallopia convolvulus (POLCO).
Text: as §1, §2, §3, §4, §5

Test [3] relates to Setaria viridis (SETVI).
Text: as §1, §2, §3, §4, §5

In the case of `CC(C)OC(=O)C1C=CC(NC(=O)C2(C(=O)Nc3cc(F)cc(F)c3)CCO2)C1` (mixture of isomers) [I.4], the “herbicidal activity against ECHCG” value in test [1] was “very good (a very good herbicidal activity is given at values of 90 to 100)”. Also, in test [2], the “herbicidal activity against POLCO” value was “very good (a very good herbicidal activity is given at values of 90 to 100)”. The “herbicidal activity against SETVI” value in test [3] is given as “very good (a very good herbicidal activity is given at values of 90 to 100)”.

(Values after US20230406833A1, “HERBICIDAL MALONAMIDES” (BASF SE, priority 2020, published 2023).)
